Laboratory results from paper PMC5701137, “Discovery of novel choline acetyltransferase inhibitors using structure-based virtual screening” (Scientific Reports, 2017).

target: T1, human rChAT (Homo sapiens, UniProt P28329); assay: In vitro ChAT activity inhibition fluorometric assay and kinetic studies; type: biochemical; settings: 100 µM compound; compared to control; mean of three experiments in triplicate; read-out: ChAT % IR (inhibition rate)
T1 construct: made in house; host or cells: E. coli BL21 Rosetta2
T1 sequence (P28329 1-630 isoform P28329-3): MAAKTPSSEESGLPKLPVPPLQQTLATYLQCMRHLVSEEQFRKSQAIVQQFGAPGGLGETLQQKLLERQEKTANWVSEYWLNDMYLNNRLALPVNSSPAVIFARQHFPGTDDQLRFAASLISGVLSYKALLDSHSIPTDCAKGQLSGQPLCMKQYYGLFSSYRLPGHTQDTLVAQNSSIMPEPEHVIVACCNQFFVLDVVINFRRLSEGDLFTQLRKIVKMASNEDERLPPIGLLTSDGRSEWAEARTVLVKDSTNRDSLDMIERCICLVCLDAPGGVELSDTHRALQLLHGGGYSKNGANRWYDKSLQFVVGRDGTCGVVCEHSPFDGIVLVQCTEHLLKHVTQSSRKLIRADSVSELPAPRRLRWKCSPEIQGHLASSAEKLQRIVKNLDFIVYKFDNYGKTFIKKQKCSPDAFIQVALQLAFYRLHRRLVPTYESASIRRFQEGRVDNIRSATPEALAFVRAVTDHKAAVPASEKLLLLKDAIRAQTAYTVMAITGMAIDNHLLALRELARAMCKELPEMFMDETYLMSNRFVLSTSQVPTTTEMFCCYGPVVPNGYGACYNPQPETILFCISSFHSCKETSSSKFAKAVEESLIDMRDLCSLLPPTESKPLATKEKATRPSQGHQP
Procedure: ChAT activity was measured using our newly developed fluorometric assay, using human recombinant ChAT (rChAT) protein. The reagents, choline chloride, acetyl coenzyme-A (ACoA, A2181) and 7-Diethylamino-3-(4-maleimidophenyl)-4-methylcoumarin (CPM) were purchased from Sigma-Aldrich (St. Louis, MO, USA).
The ChAT assay could be run in either 96-well or 384-well plates. For 96-well plates, 50 μL/well of 0.212 µg/ml (final concentration) of the recombinant ChAT was incubated with 100 μM different Asinex compounds (50 μL/well) for 10–30 minutes at room temperature in dilution buffer (10 mM Tris-HCl, pH 7.4, 150 mM NaCl, 1.0 mM EDTA, 0.05% (v/v) Triton X-100). Then, 50 µL of a cocktail-A [dilution buffer containing choline chloride (final concentration 150 µM), ACoA (final concentration 13.3 µM) and CPM (final concentration 15 µM)] was added to each well. Immediately after adding the cocktail-A, the changes in fluorescence was monitored kinetically at 479 nm after exciting at 390 nm at 1–2 minute intervals for 15–20 minutes using a microplate spectrophotometer reader (Infinite M1000, Tecan).
Each Asinex compounds were run in triplicates. On each 96-wells plate, several enzyme wells without inhibitor were also included during measurements as control and for estimating the inhibition level. Negative controls were wells without enzyme. The percentage inhibition for each Asinex compound was calculated based on the enzyme control value as a reference (100% activity). The compounds showing over 50% inhibition of enzyme activity were selected for further kinetic studies.
(§1) For kinetic studies, a similar protocol as inhibition assay was followed; a dilution series of five different concentrations ranging from 10^−6 to 10^−9 M were prepared for each selected Asinex compounds. For ChAT, the A-CoA was kept constant at 10 μM (final) but the concentration of choline chloride varied between 320–10 μM. For BuChE, BTC was used as the substrate in the concentrations ranging from 0.0625 to 2 mM. For AChE, ATC was used as the substrate in the concentrations ranging from 0.0312 to 1 mM. Each compound concentration was measured in duplicates. The rate of enzyme activity (as ∆OD/hr kinetic data) was calculated and processed using the GraphPad Prism 7 analysis software. The inhibitory constant (Ki) values were determined from the dose-response curve and the half-maximal inhibitory concentration (IC50) values were calculated by plotting the percentage enzyme activity vs. the log of the Asinex compound concentrations and fitting the data using the nonlinear regression Enzyme Kinetics-Inhibition function.
The Michaelis-Menten constant (Km) and maximal velocity (Vmax) values were calculated from substrate-velocity curve after fitting the data with non-linear regression Michaelis-Menten kinetic function. The Km and Vmax values were further used to plot the Lineweaver-Burk plots; the plots were fitted using linear regression function.

Compound	inhibition at 100 µM [%]
COc1cc(OC)cc(C(=O)N2CCN(C(=O)C(c3ccccc3)c3ccccc3)CC2)c1 [Compound A1]	0
CCOC(=O)c1sc2ncn(CCc3ccccc3)c(=O)c2c1C [Compound A3]	6.9
Cc1c(C)n(C(=O)CSc2nnc(-c3ccccc3)o2)c2ccccc12 [Compound A4]	26.7
CC1(C)CC(=O)C(=CNCC2CCN(C(=O)Cc3ccc(Cl)cc3)CC2)C(=O)C1 [Compound A5]	2.1
Cc1cc2nc(C3CCN(CC(=O)Nc4ccccc4)CC3)[nH]c2cc1C [Compound A6]	0
Clc1cccc(N2CCN(Cc3nnn(Cc4ccco4)n3)CC2)c1 [Compound A7]	7.2
COc1ccc(Cl)cc1NC(=O)CCN1CCN(c2ccccc2C)CC1 [Compound B2]	0
COc1ccc(CC(=O)Nc2cc3oc4ccccc4c3cc2OC)cc1 [Compound B3]	0
COc1cc(CN2CCC(C(=O)N3CCC(C)CC3)CC2)ccc1OCc1ccccc1 [Compound B5]	0
COc1ccccc1N1CCN(c2nc(-c3ccc(C)cc3)cc(=O)[nH]2)CC1 [Compound B6]	7.6
O=C(Nc1ccc(CN2CCOCC2)cc1)c1ccc2c(c1)[nH]c(=O)n2CCc1ccccc1 [Compound B7]	13.3
CN(C(=O)COc1ccc(-c2nn(C)c(=O)c3ccccc23)cc1)C1CCCCC1 [Compound C1]	0
CCn1c(CNC(=O)COc2ccc(Cl)cc2)cc2ccccc21 [Compound C3]	0
COCCNc1c(-c2cc3cc(C)ccc3[nH]c2=O)nc2ccc(Cl)cn12 [Compound C7]	0
Cc1cccc(N2CCN(CC(=O)Nc3ccc(C)c(F)c3)CC2)c1 [Compound D1]	0
CC(=O)c1ccc(NC(=O)CN2CCN(c3cccc(C)c3C)CC2)cc1 [Compound D2]	0
COc1ccc(NC(=O)Cn2nc(C(F)(F)F)c3c2CCCC3)c(OC)c1 [Compound D5]	0
COc1ccc(-c2cc(C(F)(F)F)nc(SCCC(=O)N3CCN(C)CC3)n2)cc1 [Compound D6]	4.8
CCOc1ccc2[nH]c(=O)c(CN(Cc3ccccc3)C(=O)N3CCCC3)cc2c1 [Compound D7]	0
CCc1ccccc1NC(=O)CSc1nnc(-c2cccnc2)n1CC [Compound E2]	4.1
O=C(CSc1nnc(-c2cccc(F)c2)o1)N1CCC(Cc2ccccc2)CC1 [Compound E3]	10.3
COc1cccc(OCC(=O)Nc2cc3oc4ccccc4c3cc2OC)c1 [Compound E4]	4.8
C=C(C)CN1N=C(C)Cn2c1nc1c2c(=O)n(C/C=C/c2ccccc2)c(=O)n1C [Compound E5]	0
Cc1ccccc1OCC(=O)Oc1ccc2c(C)cc(=O)oc2c1 [Compound E6]	2.5

target: T2, recombinant human AChE (Homo sapiens, UniProt P22303); assay: Modified Ellman's colorimetric assay for AChE and kinetic studies; type: biochemical; settings: 200 µM compound; compared to control; mean of three experiments in triplicate; read-out: AChE % IR (inhibition rate)
T2 construct: purchased Sigma C1682
From the text: (§2) A modified version of Ellman’s colorimetric assay[16],[17] was adapted to a high throughput assay for the enzymatic activity of BuChE and AChE. The reagent, butyrylthiocholine iodide (BTC), acetylthiocholine iodide (ATC), 5,5′-dithiobis (2-nitrobenzoic acid) (DTNB) were purchased from Sigma-Aldrich (St. Louis, MO, USA). The modified assay details are as previously described[34],[35]. The main modification concerned with the high throughput adaptation of the assay for use in 384-well plates. Briefly, 25 μL/well of a 1:450 diluted solution of a pooled human plasma and 1:768 diluted (3.5 ng/ml final concentration) purified recombinant human AChE protein (Sigma, Cat no. C1682) was used for measurement of BuChE and AChE activity, respectively. In the initial in vitro screening step, the wells were pre-incubated with 25 μL/wells of different Asinex compounds for 10–30 minutes at room temperature. The concentration of the compounds working solution was 3X to give a final concentration of 200 μM in a final volume of 75 μL in each well. The stock concentration of the compounds were prepared in 100% DMSO. The stock concentration was chosen usually at 10 mM, allowing the final DMSO concentration in the wells to be less than 4%. Finally, 25 μL of a cocktail mix prepared in Na/K phosphate buffer, containing DTNB (final concentration 0.4 mM) and BTC, (final concentration 1 mM) or ATC (final concentration 0.5 mM) was added to each well and the changes in absorbance was monitored at 412 nm wavelength for 15–20 minutes with one-minute interval, using a microplate spectrophotometer reader (Infinite M1000, Tecan). The rate of the enzyme activity was determined from the linear part of the kinetic reaction curves as ∆OD/time.
as §1

T2 sequence (P22303 32-614): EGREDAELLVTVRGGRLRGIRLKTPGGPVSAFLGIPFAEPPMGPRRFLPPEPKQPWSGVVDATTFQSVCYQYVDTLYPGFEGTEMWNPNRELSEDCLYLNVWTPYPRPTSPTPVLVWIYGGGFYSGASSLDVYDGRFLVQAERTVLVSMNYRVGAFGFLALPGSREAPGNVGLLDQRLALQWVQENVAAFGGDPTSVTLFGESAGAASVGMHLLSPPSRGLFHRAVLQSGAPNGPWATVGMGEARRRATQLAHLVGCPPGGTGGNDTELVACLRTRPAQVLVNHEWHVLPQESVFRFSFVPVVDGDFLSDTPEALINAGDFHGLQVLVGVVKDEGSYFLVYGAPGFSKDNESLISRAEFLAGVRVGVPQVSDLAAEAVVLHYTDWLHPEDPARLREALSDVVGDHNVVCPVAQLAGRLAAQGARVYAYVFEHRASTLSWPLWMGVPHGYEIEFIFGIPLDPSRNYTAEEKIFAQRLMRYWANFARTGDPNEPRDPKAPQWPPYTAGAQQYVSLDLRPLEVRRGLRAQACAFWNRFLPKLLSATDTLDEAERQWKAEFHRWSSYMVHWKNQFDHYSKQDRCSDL

Compound	inhibition at 200 µM [%]
COc1cc(OC)cc(C(=O)N2CCN(C(=O)C(c3ccccc3)c3ccccc3)CC2)c1 [Compound A1]	0
CCOC(=O)c1sc2ncn(CCc3ccccc3)c(=O)c2c1C [Compound A3]	0
Cc1c(C)n(C(=O)CSc2nnc(-c3ccccc3)o2)c2ccccc12 [Compound A4]	0
CC1(C)CC(=O)C(=CNCC2CCN(C(=O)Cc3ccc(Cl)cc3)CC2)C(=O)C1 [Compound A5]	7
Cc1cc2nc(C3CCN(CC(=O)Nc4ccccc4)CC3)[nH]c2cc1C [Compound A6]	11.9
Clc1cccc(N2CCN(Cc3nnn(Cc4ccco4)n3)CC2)c1 [Compound A7]	15.8
COc1ccc(Cl)cc1NC(=O)CCN1CCN(c2ccccc2C)CC1 [Compound B2]	0
COc1ccc(CC(=O)Nc2cc3oc4ccccc4c3cc2OC)cc1 [Compound B3]	0
COc1cc(CN2CCC(C(=O)N3CCC(C)CC3)CC2)ccc1OCc1ccccc1 [Compound B5]	26.1
COc1ccccc1N1CCN(c2nc(-c3ccc(C)cc3)cc(=O)[nH]2)CC1 [Compound B6]	2.6
CCn1c(CNC(=O)COc2ccc(Cl)cc2)cc2ccccc21 [Compound C3]	22
COc1ccc(-c2nnc(-c3cc4c(ccc5ccccc54)oc3=O)o2)cc1 [Compound C6]	33.1
COCCNc1c(-c2cc3cc(C)ccc3[nH]c2=O)nc2ccc(Cl)cn12 [Compound C7]	15.7
Cc1cccc(N2CCN(CC(=O)Nc3ccc(C)c(F)c3)CC2)c1 [Compound D1]	0
CC(=O)c1ccc(NC(=O)CN2CCN(c3cccc(C)c3C)CC2)cc1 [Compound D2]	18.1
COc1ccc(NC(=O)Cn2nc(C(F)(F)F)c3c2CCCC3)c(OC)c1 [Compound D5]	4.2
COc1ccc(-c2cc(C(F)(F)F)nc(SCCC(=O)N3CCN(C)CC3)n2)cc1 [Compound D6]	0
CCOc1ccc2[nH]c(=O)c(CN(Cc3ccccc3)C(=O)N3CCCC3)cc2c1 [Compound D7]	27.7
CCc1ccccc1NC(=O)CSc1nnc(-c2cccnc2)n1CC [Compound E2]	2.7
O=C(CSc1nnc(-c2cccc(F)c2)o1)N1CCC(Cc2ccccc2)CC1 [Compound E3]	10.2
COc1cccc(OCC(=O)Nc2cc3oc4ccccc4c3cc2OC)c1 [Compound E4]	1.5
C=C(C)CN1N=C(C)Cn2c1nc1c2c(=O)n(C/C=C/c2ccccc2)c(=O)n1C [Compound E5]	4.1
Cc1ccccc1OCC(=O)Oc1ccc2c(C)cc(=O)oc2c1 [Compound E6]	0

same assay, conditions: mean of two experiments

Compound	Ki [µM]
O=C(Nc1ccc(CN2CCOCC2)cc1)c1ccc2c(c1)[nH]c(=O)n2CCc1ccccc1 [Compound B7]	65.4
CN(C(=O)COc1ccc(-c2nn(C)c(=O)c3ccccc23)cc1)C1CCCCC1 [Compound C1]	42.3

same assay, conditions: substrate ATC 0.5 mM; mean of two experiments

Compound	IC50 [µM]
O=C(Nc1ccc(CN2CCOCC2)cc1)c1ccc2c(c1)[nH]c(=O)n2CCc1ccccc1 [Compound B7]	40.1
CN(C(=O)COc1ccc(-c2nn(C)c(=O)c3ccccc23)cc1)C1CCCCC1 [Compound C1]	71.9

target: T3, plasma BuChE (Homo sapiens, UniProt P06276); assay: Modified Ellman's colorimetric assay for BuChE (pooled human plasma) and kinetic studies; type: biochemical; settings: 200 µM compound; compared to control; mean of three experiments in triplicate; read-out: BuChE % IR (inhibition rate)
T3 construct: 1:450 diluted solution of a pooled human plasma; from tissue; host or cells: pooled human plasma
From the text: as §2, §1

T3 sequence (P06276 29-602): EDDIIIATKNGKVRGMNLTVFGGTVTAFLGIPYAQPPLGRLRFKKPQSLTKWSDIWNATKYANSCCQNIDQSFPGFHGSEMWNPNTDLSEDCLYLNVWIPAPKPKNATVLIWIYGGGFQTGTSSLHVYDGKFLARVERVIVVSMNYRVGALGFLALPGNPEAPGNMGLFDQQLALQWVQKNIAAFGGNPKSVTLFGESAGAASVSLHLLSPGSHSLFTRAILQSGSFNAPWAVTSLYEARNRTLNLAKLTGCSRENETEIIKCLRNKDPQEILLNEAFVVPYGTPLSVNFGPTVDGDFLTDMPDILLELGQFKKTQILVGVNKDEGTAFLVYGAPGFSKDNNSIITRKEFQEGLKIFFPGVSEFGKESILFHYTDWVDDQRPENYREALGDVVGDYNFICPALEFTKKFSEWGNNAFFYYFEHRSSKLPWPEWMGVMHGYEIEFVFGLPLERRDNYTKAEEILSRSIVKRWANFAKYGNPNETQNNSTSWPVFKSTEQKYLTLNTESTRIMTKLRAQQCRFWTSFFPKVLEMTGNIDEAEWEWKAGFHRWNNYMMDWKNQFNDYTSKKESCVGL

Compound	inhibition at 200 µM [%]
COc1cc(OC)cc(C(=O)N2CCN(C(=O)C(c3ccccc3)c3ccccc3)CC2)c1 [Compound A1]	4.8
CCOC(=O)c1sc2ncn(CCc3ccccc3)c(=O)c2c1C [Compound A3]	15.1
Cc1c(C)n(C(=O)CSc2nnc(-c3ccccc3)o2)c2ccccc12 [Compound A4]	14.4
CC1(C)CC(=O)C(=CNCC2CCN(C(=O)Cc3ccc(Cl)cc3)CC2)C(=O)C1 [Compound A5]	9.2
Cc1cc2nc(C3CCN(CC(=O)Nc4ccccc4)CC3)[nH]c2cc1C [Compound A6]	20.2
Clc1cccc(N2CCN(Cc3nnn(Cc4ccco4)n3)CC2)c1 [Compound A7]	29.9
COc1ccc(Cl)cc1NC(=O)CCN1CCN(c2ccccc2C)CC1 [Compound B2]	18.5
COc1ccc(CC(=O)Nc2cc3oc4ccccc4c3cc2OC)cc1 [Compound B3]	16.6
COc1cc(CN2CCC(C(=O)N3CCC(C)CC3)CC2)ccc1OCc1ccccc1 [Compound B5]	39.5
COc1ccccc1N1CCN(c2nc(-c3ccc(C)cc3)cc(=O)[nH]2)CC1 [Compound B6]	11
O=C(Nc1ccc(CN2CCOCC2)cc1)c1ccc2c(c1)[nH]c(=O)n2CCc1ccccc1 [Compound B7]	14.9
CN(C(=O)COc1ccc(-c2nn(C)c(=O)c3ccccc23)cc1)C1CCCCC1 [Compound C1]	9.8
CCn1c(CNC(=O)COc2ccc(Cl)cc2)cc2ccccc21 [Compound C3]	20.1
COc1ccc(-c2nnc(-c3cc4c(ccc5ccccc54)oc3=O)o2)cc1 [Compound C6]	34.7
COCCNc1c(-c2cc3cc(C)ccc3[nH]c2=O)nc2ccc(Cl)cn12 [Compound C7]	29.4
Cc1cccc(N2CCN(CC(=O)Nc3ccc(C)c(F)c3)CC2)c1 [Compound D1]	20
CC(=O)c1ccc(NC(=O)CN2CCN(c3cccc(C)c3C)CC2)cc1 [Compound D2]	7
COc1ccc(NC(=O)Cn2nc(C(F)(F)F)c3c2CCCC3)c(OC)c1 [Compound D5]	7.8
COc1ccc(-c2cc(C(F)(F)F)nc(SCCC(=O)N3CCN(C)CC3)n2)cc1 [Compound D6]	9.3
CCOc1ccc2[nH]c(=O)c(CN(Cc3ccccc3)C(=O)N3CCCC3)cc2c1 [Compound D7]	22.4
CCc1ccccc1NC(=O)CSc1nnc(-c2cccnc2)n1CC [Compound E2]	12
O=C(CSc1nnc(-c2cccc(F)c2)o1)N1CCC(Cc2ccccc2)CC1 [Compound E3]	23
COc1cccc(OCC(=O)Nc2cc3oc4ccccc4c3cc2OC)c1 [Compound E4]	11.7
C=C(C)CN1N=C(C)Cn2c1nc1c2c(=O)n(C/C=C/c2ccccc2)c(=O)n1C [Compound E5]	12.8
Cc1ccccc1OCC(=O)Oc1ccc2c(C)cc(=O)oc2c1 [Compound E6]	13.2
